Data as given in patent US12448389B2, “BRM targeting compounds and associated methods of use” (Prelude Therapeutics Incorporated, priority 2020, dated 2025).

Legend:
SMARCA4-HiBiT = biological target: T1, SMARCA4-HiBiT (Homo sapiens, UniProt P51532); experiment: SMARCA4 HiBiT degradation assay in HeLa cells; type: cell-based; conditions: 18 hours incubation; for DC50: read-out: HeLa-HiBit-SM4 DC50; for Dmax: HeLa, read-out: HeLa-HiBit-SM4 Dmax (%)
T1 construct: SMARCA4-HiBiT knock-in Hela monoclonal cell (CS3023226); host or cells: HeLa monoclonal knock-in line (CRISPR HiBiT knock-in at the endogenous locus, heterozygous)
T1 sequence (P51532 whole entry): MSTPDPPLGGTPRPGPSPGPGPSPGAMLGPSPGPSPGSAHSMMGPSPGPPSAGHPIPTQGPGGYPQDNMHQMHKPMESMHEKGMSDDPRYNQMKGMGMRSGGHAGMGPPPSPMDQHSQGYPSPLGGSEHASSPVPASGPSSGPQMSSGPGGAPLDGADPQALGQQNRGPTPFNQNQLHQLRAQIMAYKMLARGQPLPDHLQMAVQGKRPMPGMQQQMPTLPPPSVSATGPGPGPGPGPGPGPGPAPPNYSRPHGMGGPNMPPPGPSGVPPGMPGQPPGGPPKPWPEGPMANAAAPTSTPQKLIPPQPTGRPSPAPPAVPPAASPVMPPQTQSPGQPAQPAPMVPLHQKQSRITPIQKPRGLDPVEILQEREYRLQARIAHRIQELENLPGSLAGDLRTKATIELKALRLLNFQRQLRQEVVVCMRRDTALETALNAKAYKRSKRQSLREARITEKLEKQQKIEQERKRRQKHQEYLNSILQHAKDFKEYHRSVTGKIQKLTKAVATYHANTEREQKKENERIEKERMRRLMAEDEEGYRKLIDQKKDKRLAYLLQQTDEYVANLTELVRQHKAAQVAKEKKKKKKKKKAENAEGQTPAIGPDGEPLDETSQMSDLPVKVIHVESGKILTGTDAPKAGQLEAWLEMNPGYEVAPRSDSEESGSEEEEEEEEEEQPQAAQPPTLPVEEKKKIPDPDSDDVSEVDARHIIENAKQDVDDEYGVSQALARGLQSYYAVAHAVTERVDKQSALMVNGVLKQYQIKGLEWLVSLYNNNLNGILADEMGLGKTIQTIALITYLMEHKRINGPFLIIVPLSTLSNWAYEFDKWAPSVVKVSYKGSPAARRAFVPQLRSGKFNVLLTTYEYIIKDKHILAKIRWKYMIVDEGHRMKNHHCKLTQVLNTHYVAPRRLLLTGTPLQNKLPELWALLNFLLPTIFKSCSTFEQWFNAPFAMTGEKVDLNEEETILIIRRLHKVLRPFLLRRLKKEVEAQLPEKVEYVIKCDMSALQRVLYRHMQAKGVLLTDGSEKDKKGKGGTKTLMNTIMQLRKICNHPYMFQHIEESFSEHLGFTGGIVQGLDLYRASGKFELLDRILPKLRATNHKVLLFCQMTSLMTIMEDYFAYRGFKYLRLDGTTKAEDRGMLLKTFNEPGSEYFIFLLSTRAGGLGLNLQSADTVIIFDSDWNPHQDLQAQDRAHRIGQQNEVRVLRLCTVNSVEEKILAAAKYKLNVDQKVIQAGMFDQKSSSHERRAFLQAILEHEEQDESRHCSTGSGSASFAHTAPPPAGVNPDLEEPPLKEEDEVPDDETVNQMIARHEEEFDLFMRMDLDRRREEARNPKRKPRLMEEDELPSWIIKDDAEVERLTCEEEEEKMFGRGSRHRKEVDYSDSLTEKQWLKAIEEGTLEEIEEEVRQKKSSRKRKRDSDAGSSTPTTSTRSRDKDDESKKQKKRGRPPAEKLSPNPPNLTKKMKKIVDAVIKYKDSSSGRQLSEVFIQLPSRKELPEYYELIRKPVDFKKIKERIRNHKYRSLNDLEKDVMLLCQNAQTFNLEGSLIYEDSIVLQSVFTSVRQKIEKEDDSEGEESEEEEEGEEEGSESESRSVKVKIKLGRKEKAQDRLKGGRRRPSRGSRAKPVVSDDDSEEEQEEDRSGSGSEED
Summary of the method: (§1)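 HeLa monoclonal lines with heterozygous HiBiT knock-in were seeded at 2500 cells/well in EMEM with 10% FBS and treated with compound for 18 h at 37 °C. Remaining tagged protein was measured by Nano-Glo HiBiT lytic luminescence after 30–60 min at RT, and values came from curve fitting.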

SMARCA2-HiBiT = biological target: T2, SMARCA2-HiBiT (Homo sapiens, UniProt P51531); experiment: SMARCA2 HiBiT degradation assay in HeLa cells; type: cell-based; conditions: 18 hours incubation; for DC50: read-out: HeLa_HiBit-SM2 DC50; for Dmax: HeLa, read-out: HeLa-HiBit-SM2 Dmax (%)
T2 construct: SMARCA2-HiBiT knock-in Hela monoclonal cell (CS302366); host or cells: HeLa monoclonal knock-in line (CRISPR HiBiT knock-in at the endogenous locus, heterozygous)
T2 sequence (P51531 whole entry): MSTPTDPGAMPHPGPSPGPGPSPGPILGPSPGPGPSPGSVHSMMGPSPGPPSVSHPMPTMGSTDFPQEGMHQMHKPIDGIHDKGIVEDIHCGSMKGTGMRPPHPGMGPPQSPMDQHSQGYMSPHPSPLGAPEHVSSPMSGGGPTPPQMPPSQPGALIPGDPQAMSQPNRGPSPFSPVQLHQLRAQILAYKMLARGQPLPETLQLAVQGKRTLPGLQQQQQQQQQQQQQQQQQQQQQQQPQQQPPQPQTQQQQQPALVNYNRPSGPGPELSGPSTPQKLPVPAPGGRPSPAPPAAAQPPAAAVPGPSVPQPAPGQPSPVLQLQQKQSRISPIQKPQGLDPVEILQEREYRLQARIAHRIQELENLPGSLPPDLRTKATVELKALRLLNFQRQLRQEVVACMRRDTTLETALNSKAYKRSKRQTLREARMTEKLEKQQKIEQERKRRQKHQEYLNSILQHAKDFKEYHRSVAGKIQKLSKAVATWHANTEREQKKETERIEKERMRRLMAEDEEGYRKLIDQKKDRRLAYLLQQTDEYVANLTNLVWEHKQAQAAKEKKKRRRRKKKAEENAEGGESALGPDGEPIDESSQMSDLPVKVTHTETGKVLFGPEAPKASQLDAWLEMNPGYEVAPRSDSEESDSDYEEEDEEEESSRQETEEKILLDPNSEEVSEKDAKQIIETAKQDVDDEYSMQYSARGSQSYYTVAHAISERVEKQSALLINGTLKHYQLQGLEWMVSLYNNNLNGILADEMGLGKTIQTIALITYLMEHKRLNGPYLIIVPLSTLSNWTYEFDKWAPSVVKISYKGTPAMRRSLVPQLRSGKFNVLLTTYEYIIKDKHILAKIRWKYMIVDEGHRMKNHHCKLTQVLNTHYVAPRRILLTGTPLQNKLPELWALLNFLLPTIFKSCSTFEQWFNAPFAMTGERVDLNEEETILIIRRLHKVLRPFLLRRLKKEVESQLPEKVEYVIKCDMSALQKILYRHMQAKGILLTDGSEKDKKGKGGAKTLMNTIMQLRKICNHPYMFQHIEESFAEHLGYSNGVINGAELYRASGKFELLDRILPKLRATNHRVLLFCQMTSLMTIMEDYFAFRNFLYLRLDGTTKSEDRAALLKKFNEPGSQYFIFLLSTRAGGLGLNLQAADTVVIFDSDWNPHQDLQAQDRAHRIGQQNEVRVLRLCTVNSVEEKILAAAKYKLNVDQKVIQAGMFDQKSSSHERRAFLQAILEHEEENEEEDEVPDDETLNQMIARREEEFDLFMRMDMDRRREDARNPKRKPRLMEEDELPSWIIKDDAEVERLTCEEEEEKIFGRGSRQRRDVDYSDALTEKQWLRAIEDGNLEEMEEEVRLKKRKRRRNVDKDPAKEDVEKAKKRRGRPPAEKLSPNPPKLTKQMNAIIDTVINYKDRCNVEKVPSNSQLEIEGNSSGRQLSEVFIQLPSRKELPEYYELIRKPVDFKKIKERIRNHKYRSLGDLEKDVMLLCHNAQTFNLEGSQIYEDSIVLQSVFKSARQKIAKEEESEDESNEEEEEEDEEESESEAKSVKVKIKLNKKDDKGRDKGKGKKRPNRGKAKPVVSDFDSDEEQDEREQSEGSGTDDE
Summary of the method: as §1

For `CC1(C)CN(c2ccc3c(c2)C(=O)N(C2CCC(=O)NC2=O)C3=O)CCC1CN1CCC(CN2CCN3c4cc(-c5ccccc5O)nnc4NC[C@H]3C2)CC1` (stereo partly drawn) [Example 88, 2-(2,6-dioxopiperidin-3-yl)-5-(4-((4-(((S)-2-(2-hydroxyphenyl)-5,6,6a,7,9,10-hexahydro-8H-pyrazino[1′,2′:4,5]pyrazino[2,3-c]pyridazin-8-yl)methyl)piperidin-1-yl)methyl)-3,3-dimethylpiperidin-1-yl)isoindoline-1,3-dione], the DC50 (SMARCA4-HiBiT) was under 10 nM, the Dmax (SMARCA4-HiBiT) was over 85% and the DC50 (SMARCA2-HiBiT) was under 10 nM. For the same molecule, the Dmax (SMARCA2-HiBiT) was over 85%.
For `O=C1CCC(N2Cc3cc(CN4CCC(CCCN5CCC(N6CCN7c8cc(-c9ccccc9O)nnc8NC[C@H]7C6)CC5)CC4)ccc3C2=O)C(=O)N1` (stereo partly drawn) [Example 65, 3-(5-((4-(3-(4-((S)-2-(2-hydroxyphenyl)-5,6,6a,7,9,10-hexahydro-8H-pyrazino[1′,2′:4,5]pyrazino[2,3-c]pyridazin-8-yl)piperidin-1-yl)propyl)piperidin-1-yl)methyl)-1-oxoisoindolin-2-yl)piperidine-2,6-dione], the DC50 (SMARCA4-HiBiT) was under 10 nM, the Dmax (SMARCA4-HiBiT) was over 85% and the DC50 (SMARCA2-HiBiT) was under 10 nM. It also gave a Dmax (SMARCA2-HiBiT) of over 85%.
In the case of `CC1CN(c2ccc3c(c2)C(=O)N(C2CCC(=O)NC2=O)C3=O)CCC1CN1C[C@@H]2[C@H](C1)[C@H]2CN1CCN2c3cc(-c4ccccc4O)nnc3NC[C@H]2C1` (stereo partly drawn) [Example 197, 2-(2,6-dioxopiperidin-3-yl)-5-(4-(((1R,5S,6r)-6-(((S)-2-(2-hydroxyphenyl)-5,6,6a,7,9,10-hexahydro-8H-pyrazino[1′,2′:4,5]pyrazino[2,3-c]pyridazin-8-yl)methyl)-3-azabicyclo[3.1.0]hexan-3-yl)methyl)-3-methylpiperidin-1-yl)isoindoline-1,3-dione], the “HeLa-HiBit-SM4 Dmax (%)” value (SMARCA4-HiBiT) is reported as “B (B=75%<Dmax<=85%)”, the DC50 (SMARCA4-HiBiT) is reported as under 10 nM and the DC50 (SMARCA2-HiBiT) is reported as under 10 nM. The Dmax (SMARCA2-HiBiT) was over 85%.
`O=C1CCC(N2C(=O)c3ccc(N4CC(CN5CCN(C(=O)N6CCN7c8cc(-c9ccccc9O)nnc8NC[C@H]7C6)CC5)C4)cc3C2=O)C(=O)N1` (stereo partly drawn) [Example 82, 2-(2,6-dioxopiperidin-3-yl)-5-(3-((4-((S)-2-(2-hydroxyphenyl)-6,6a,7,8,9,10-hexahydro-511-pyrazino[1′,2′:4,5]pyrazino[2,3-c]pyridazine-8-carbonyl)piperazin-1-yl)methyl)azetidin-1-yl) isoindoline-1,3-dione] was tested, and the DC50 (SMARCA4-HiBiT) was under 10 nM, the Dmax (SMARCA4-HiBiT) was 50 to 75% and the DC50 (SMARCA2-HiBiT) was under 10 nM. For the same molecule, the Dmax (SMARCA2-HiBiT) was 75 to 85%.
Molecule `O=C1CCC(N2Cc3cc(OCCN4CCC(N5CCN6c7cc(-c8ccccc8O)nnc7NC[C@H]6C5)CC4)ccc3C2=O)C(=O)N1` (stereo partly drawn) [Example 238] has a DC50 (SMARCA4-HiBiT) of under 10 nM, a Dmax (SMARCA4-HiBiT) of 75 to 85% and a DC50 (SMARCA2-HiBiT) of under 10 nM. The Dmax (SMARCA2-HiBiT) was over 85%.
In the case of `O=C1CCC(N2C(=O)c3ccc(N4CCC(CN5CCC(CN6CCN7c8cc(-c9ccccc9O)nnc8NC[C@H]7C6)CC5CO)CC4)cc3C2=O)C(=O)N1` (stereo partly drawn) [Example 236, 2-(2,6-dioxopiperidin-3-yl)-5-(4-((2-(hydroxymethyl)-4-(((S)-2-(2-hydroxyphenyl)-5,6,6a,7,9,10-hexahydro-8H-pyrazino[1′,2′:4,5]pyrazino[2,3-c]pyridazin-8-yl)methyl)piperidin-1-yl)methyl)piperidin-1-yl) isoindoline-1,3-dione], the DC50 (SMARCA4-HiBiT) is reported as under 10 nM, the Dmax (SMARCA4-HiBiT) is reported as 75 to 85% and the DC50 (SMARCA2-HiBiT) is reported as under 10 nM. It also gave a Dmax (SMARCA2-HiBiT) of over 85%.
Molecule `CC1CN(CC2CCN(c3ccc4c(c3)C(=O)N(C3CCC(=O)NC3=O)C4)CC2)CCC1C(=O)N1CCN2c3cc(-c4ccccc4O)nnc3NC[C@H]2C1` (stereo partly drawn) [Example 264, 3-(6-(4-((4-((S)-2-(2-hydroxyphenyl)-6,6a,7,8,9,10-hexahydro-5H-pyrazino[1′,2′:4,5]pyrazino[2,3-c]pyridazine-8-carbonyl)-3-methylpiperidin-1-yl)methyl)piperidin-1-yl)-1-oxoisoindolin-2-yl)piperidine-2,6-dione] has a DC50 (SMARCA4-HiBiT) of under 10 nM, a Dmax (SMARCA4-HiBiT) of 75 to 85% and a DC50 (SMARCA2-HiBiT) of under 10 nM. For the same molecule, the Dmax (SMARCA2-HiBiT) was over 85%.
For `O=C1CCC(N2Cc3ccc(N4CCC(CN5CC6(C5)CN(C(=O)N5CCN7c8cc(-c9ccccc9O)nnc8NC[C@H]7C5)C6)CC4)cc3C2=O)C(=O)N1` (stereo partly drawn) [Example 101, 3-(6-(4-((6-((S)-2-(2-hydroxyphenyl)-6,6a,7,8,9,10-hexahydro-5H-pyrazino[1′,2′:4,5]pyrazino[2,3-c]pyridazine-8-carbonyl)-2,6-diazaspiro[3.3]heptan-2-yl)methyl)piperidin-1-yl)-1-oxoisoindolin-2-yl)piperidine-2,6-dione], the DC50 (SMARCA4-HiBiT) was 10 to 100 nM, the Dmax (SMARCA4-HiBiT) was 75 to 85% and the DC50 (SMARCA2-HiBiT) was under 10 nM. The Dmax (SMARCA2-HiBiT) was 75 to 85%.
Work on `C[C@H]1CN2c3cc(-c4ccccc4O)nnc3NC[C@H]2CN1C[C@H]1[C@@H]2CN(CC3CCN(c4ccc5c(c4)C(=O)N(C4CCC(=O)NC4=O)C5)CC3)C[C@@H]21` (stereo partly drawn) [Example 54, 3-(6-(4-(((1R,5S,6r)-6-(((6aS,9S)-2-(2-hydroxyphenyl)-9-methyl-5,6,6a,7,9,10-hexahydro-8H-pyrazino[1′,2′:4,5]pyrazino[2,3-c]pyridazin-8-yl)methyl)-3-azabicyclo[3.1.0]hexan-3-yl)methyl)piperidin-1-yl)-1-oxoisoindolin-2-yl)piperidine-2,6-dione] yielded a DC50 (SMARCA4-HiBiT) of 10 to 100 nM, a Dmax (SMARCA4-HiBiT) of 50 to 75% and a DC50 (SMARCA2-HiBiT) of under 10 nM. For the same molecule, the Dmax (SMARCA2-HiBiT) was 75 to 85%.
Work on `O=C1CCC(N2C(=O)c3ccc(N4CCC(CN5CCC(CN6CCN7c8cc(-c9ccccc9O)nnc8NC[C@H]7C6)C(F)(F)C5)CC4)cc3C2=O)C(=O)N1` (stereo partly drawn) [Example 260, 5-(4-((3,3-difluoro-4-(((S)-2-(2-hydroxyphenyl)-5,6,6a,7,9,10-hexahydro-8H-pyrazino[1′,2′:4,5]pyrazino[2,3-c]pyridazin-8-yl)methyl)piperidin-1-yl)methyl)piperidin-1-yl)-2-(2,6-dioxopiperidin-3-yl)isoindoline-1,3-dione] yielded a DC50 (SMARCA4-HiBiT) of 10 to 100 nM, a Dmax (SMARCA4-HiBiT) of 75 to 85% and a DC50 (SMARCA2-HiBiT) of under 10 nM. The Dmax (SMARCA2-HiBiT) was 75 to 85%.
With `O=C1CCC(N2C(=O)c3ccc(N4CC[C@H](CN5CCC(C(=O)N6CCN7c8cc(-c9cc(F)ccc9O)nnc8NC[C@H]7C6)CC5)[C@@H](F)C4)cc3C2=O)C(=O)N1` (stereo partly drawn) [Example 280, 2-(2,6-dioxopiperidin-3-yl)-5-((3R,4R)-3-fluoro-4-((4-((S)-2-(5-fluoro-2-hydroxyphenyl)-6,6a,7,8,9,10-hexahydro-5H-pyrazino[1′,2′:4,5]pyrazino[2,3-c]pyridazine-8-carbonyl)piperidin-1-yl)methyl)piperidin-1-yl)isoindoline-1,3-dione] the “HeLa-HiBit-SM4 Dmax (%)” value (SMARCA4-HiBiT) was “B (B=75%<Dmax<=85%)”, the DC50 (SMARCA4-HiBiT) was under 10 nM and the “HeLa-HiBit-SM2 Dmax (%)” value (SMARCA2-HiBiT) was “A (A=Dmax>85%)”. For the same molecule, the DC50 (SMARCA2-HiBiT) was under 10 nM.
`O=C1CCC(N2C(=O)c3ccc(N4CCC(CN5C[C@H]6C[C@H](CN7CCN8c9cc(-c%10ccccc%10O)nnc9NC[C@H]8C7)C[C@H]6C5)CC4)cc3C2=O)C(=O)N1` (stereo partly drawn) [Example 45, 2-(2,6-dioxopiperidin-3-yl)-5-(4-(((3aR,5s,6aS)-5-(((S)-2-(2-hydroxyphenyl)-5,6,6a,7,9,10-hexahydro-8H-pyrazino [1′,2′:4,5]pyrazino[2,3-c]pyridazin-8-yl)methyl)hexahydrocyclopenta[c]pyrrol-2(1H)-yl)methyl)piperidin-1-yl)isoindoline-1,3-dione] was tested, and the DC50 (SMARCA4-HiBiT) was under 10 nM, the Dmax (SMARCA4-HiBiT) was over 85% and the DC50 (SMARCA2-HiBiT) was under 10 nM. It also gave a Dmax (SMARCA2-HiBiT) of over 85%.
